In PubChem BioAssay (NCI):
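These data come from cells grown in 96-well plates and exposed to compound for 48 hours at five concentrations. Here, GI50 denotes the concentration required for 50% inhibition of growth. At the TGI there is no net growth.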

Tests used:
Experiment in all cases: NCI tumour cell line growth inhibition, 48 h; in the data active = GI50 below about 0.43 µM; inactive = the rest
[1] = tested on: ACHN renal
[2] = tested on: CAKI-1 renal
[3] = tested on: CCRF-CEM leukemia
[4] = tested on: DU-145 prostate
[5] = tested on: HS 578T breast
[6] = tested on: MDA-MB-231 breast
[7] = tested on: NCI-H226 lung
[8] = tested on: OVCAR-5 ovarian
[9] = tested on: SF-539 CNS
[10] = tested on: T-47D breast
[11] = tested on: UACC-62 melanoma
[12] = tested on: HCT-116 colon
[13] = tested on: K-562 leukemia
[14] = tested on: MOLT-4 leukemia
[15] = tested on: U251 CNS
[16] = tested on: A498 renal
[17] = tested on: A549 NSCLC
[18] = tested on: COLO 205 colon
[19] = tested on: EKVX NSCLC
[20] = tested on: HCC-2998 colon
[21] = tested on: HCT-15 colon
[22] = tested on: HL-60(TB) leukemia
[23] = tested on: HOP-62 NSCLC
[24] = tested on: HOP-92 NSCLC
[25] = tested on: IGROV1 ovarian
[26] = tested on: KM12 colon
[27] = tested on: LOX IMVI melanoma
[28] = tested on: MALME-3M melanoma
[29] = tested on: MCF7 breast
[30] = tested on: MDA-MB-435
[31] = tested on: NCI-H23 lung
[32] = tested on: NCI-H460 lung
[33] = tested on: NCI/ADR-RES ovarian
[34] = tested on: OVCAR-3 ovarian
[35] = tested on: OVCAR-4 ovarian
[36] = tested on: OVCAR-8 ovarian
[37] = tested on: PC-3 prostate
[38] = tested on: RPMI-8226 leukemia
[39] = tested on: RXF 393 renal
[40] = tested on: SF-268 CNS
[41] = tested on: SF-295 CNS
[42] = tested on: SK-MEL-28 melanoma
[43] = tested on: SK-MEL-5 melanoma
[44] = tested on: SK-OV-3 ovarian
[45] = tested on: SN12C renal
[46] = tested on: SNB-19 CNS
[47] = tested on: SNB-75 CNS
[48] = tested on: SR leukemia
[49] = tested on: SW-620 colon
[50] = tested on: UACC-257 melanoma
[51] = tested on: UO-31 renal

C[C@@H](Nc1nc(Nc2ccc(F)c(Cl)c2)nc2c(C3=CCNCC3)cccc12)C1CC1
3.36 µM: TGI [11]
3.04 µM: TGI [4]
inactive: GI50 [1] 1.81 µM | GI50 [2] 1.58 µM | GI50 [3] 2.21 µM | GI50 [4] 1.64 µM | GI50 [5] 1.99 µM | GI50 [6] 1.72 µM | GI50 [7] 2.31 µM | GI50 [8] 1.53 µM | GI50 [9] 1.68 µM | GI50 [10] 1.91 µM | GI50 [11] 1.82 µM
4.82 µM: TGI [5]
3.32 µM: TGI [1]
5.54 µM: TGI [3]
3.17 µM: TGI [9]
3.25 µM: TGI [8]
4.38 µM: TGI [10]
2.99 µM: TGI [2]
5.03 µM: TGI [7]
3.28 µM: TGI [6]

Cc1ccc(C2CC3(c4ccccc4)ON=C(c4ccccc4)N3c3ccccc3S2)cc1 (stereo unspecified)
inactive: GI50 [12] 8.08 µM | GI50 [13] 38.5 µM | GI50 [14] 38.9 µM | GI50 [15] 20.6 µM

O=C(Cc1csc2nc(-c3ccc(Cl)cc3)cn12)N/N=C/c1ccccc1O
inactive: GI50 [16] 8.32 µM | GI50 [17] 5.18 µM | GI50 [1] 1.77 µM | GI50 [2] 0.782 µM | GI50 [3] 0.736 µM | GI50 [18] 2.93 µM | GI50 [4] 2.72 µM | GI50 [19] 3.26 µM | GI50 [20] 2.4 µM | GI50 [21] 0.468 µM | GI50 [22] 1.66 µM | GI50 [23] 4.67 µM | GI50 [24] 3.39 µM | GI50 [5] 10 µM | GI50 [25] 3.05 µM | GI50 [13] 3.42 µM | GI50 [26] 2.81 µM | GI50 [27] 1.93 µM | GI50 [28] 5.56 µM | GI50 [29] 3.34 µM | GI50 [6] 13.1 µM | GI50 [30] 6.1 µM | GI50 [14] 2.17 µM | GI50 [7] 4.65 µM | GI50 [31] 5.32 µM | GI50 [32] 1.39 µM | GI50 [33] 2.6 µM | GI50 [35] 1.5 µM | GI50 [8] 38.8 µM | GI50 [36] 3.01 µM | GI50 [37] 3.46 µM | GI50 [38] 3.36 µM | GI50 [39] 2.69 µM | GI50 [40] 1.26 µM | GI50 [41] 5.21 µM | GI50 [9] 7.93 µM | GI50 [42] 5.5 µM | GI50 [43] 2.93 µM | GI50 [44] 5.05 µM | GI50 [45] 11 µM | GI50 [46] 12.3 µM | GI50 [47] 4.32 µM | GI50 [48] 0.603 µM | GI50 [49] 6.81 µM | GI50 [10] 4.16 µM | GI50 [15] 1.77 µM | GI50 [50] 4.74 µM | GI50 [11] 3.42 µM | GI50 [51] 0.504 µM
16 µM: TGI [2]
> 100 µM: TGI [16] | TGI [17] | TGI [1] | TGI [3] | TGI [18] | TGI [4] | TGI [19] | TGI [20] | TGI [21] | TGI [23] | TGI [5] | TGI [25] | TGI [13] | TGI [26] | TGI [29] | TGI [6] | TGI [30] | TGI [14] | TGI [7] | TGI [31] | TGI [32] | TGI [35] | TGI [8] | TGI [37] | TGI [38] | TGI [41] | TGI [9] | TGI [42] | TGI [43] | TGI [44] | TGI [45] | TGI [46] | TGI [47] | TGI [48] | TGI [49] | TGI [10] | TGI [50]
36.1 µM: TGI [27]
78.9 µM: TGI [36]
38.9 µM: TGI [11]
39.8 µM: TGI [39]
43.9 µM: TGI [51]
35.4 µM: TGI [15]
8.51 µM: TGI [22]
active: GI50 [34] 0.36 µM
81.8 µM: TGI [33]
94.2 µM: TGI [28]
83.8 µM: TGI [34]
32.4 µM: TGI [24]
54.8 µM: TGI [40]
